# Patent US8404265B2, “Contact lenses for extended release of bioactive agents containing diffusion attenuators” (University of Florida Research Foundation, Inc., priority 2008, dated 2013)
# What was measured:
# Type in all cases: physicochemical
# [1] = Solubility of DX
# Procedure: For various drug loading methods, the mass of drug released at various time increments was divided by the total drug released at long time and plotted as a function of time. […] A DX-ethanol solution of equivalent concentration as the DX-PBS, 0.08 mg/ml as that of DX-PBS solution was used to allow direct comparison of the two loading modes, although a saturated DX in ethanol is about 1 mg/ml. […] For these lenses, there is not much difference in the total release amount of DX from the lenses soaked in DX-PBS solution for two different soaking times, but slower DX release is observed from lenses that were soaked for 7 days than that for 24 hours. […] For total release amount of DX, PureVision™ and ACUVUE® OASYS™ lenses release relatively smaller amounts (about 28 μg and 35 μg, respectively) compared to the other three lenses (about 38-41 μg). There is no correlation between amount of drugs released and the water content, which is likely because the hydrophobic drugs are expected to partition in the silicone rich phases, and so the partition coefficients in the gels will be mainly influenced by the silicone composition of the lenses. All the lenses soaked in DX-ethanol solution release substantially low amount of DX (2-8 μg). […]
# [2] = Diffusivity ratio from slope of % release versus square root of time; settings: pure lenses
# Excerpt: FIG. 31 plots % drugs release by Vitamin E loaded lenses as a function of the square root of time, for DX, timolol, fluzonazole and DXP. The lines of FIG. 31 are best fit straight lines over short time release data having R^2 larger than 0.98. […] The straight lines can be expressed by the equation:
# [formula] where Mt is the mass of drug released at time t, M∞ the mass of drug release as time approaches infinity and for perfect sink condition M∞=M0 (initial drug loading). Therefore, from the slope of the straight line in FIG. 31, diffusivities of drug in the Vitamin E loaded lens can be determined if the mean lens thickness is known. The slope for DX, timolol, fluzonazole and DXP release is plotted versus Vitamin E loading in FIG. 32A-D. The slope decreases as Vitamin E loading increases for all lenses for all drugs release, which means (√{square root over (D)}/h) decreases. […] The h also increases as Vitamin E loading increases and lens expands symmetrically for all expansion axes (isotropic expansion) as described above. The increase of h might be 6.8% for hydrated O2OPTIX lens with 34% Vitamin E loading from FIG. 5B. Consequently, √{square root over (D)} is 39.5% of that of pure lens, i.e., D of DX in the 34% Vitamin E loaded O2OPTIX lens is 15% of that of the vitamin free (pure) lens. […]
# [3] = DX uptake, release and partition coefficient, Vitamin E loaded lenses; settings: release from Vitamin E loaded lenses
# Procedure: Drug containing Vitamin E loaded lenses were prepared by directly adding drug to a Vitamin E-ethanol solution before soaking the pure lens in the solution, or by soaking a Vitamin E loaded lens in a drug-PBS solution. Drug containing Vitamin E-ethanol solutions were prepared by dissolving the drug in 3 ml of a Vitamin E-ethanol solution and then pure lens were soaked in this drug/Vitamin E-ethanol for 24 hours. The drug containing Vitamin E-ethanol lenses were taken from the solution blotted with wipes and dried overnight before subsequent release experiments.
# For PureVision™ lens loaded with Vitamin E, only three different Vitamin E loadings were examined since the effect of Vitamin E loading on drug transport is minimal compared to other lenses. The insets in FIG. 21 show plots for drug release for the initial hours. Vitamin E was loaded in the lens, the lens were dried and DX was loaded in the Vitamin E loaded lens by soaking the lens in the DX-PBS solutions. […] DX loading time is relatively long for ACUVUE® OASYS™ lenses and relatively short for PureVision™ lenses relative to that of NIGHT&DAY™ and O2OPTIX lenses for similar Vitamin E loadings regardless of the level of Vitamin E loading.
# For loading, an experimentally determined partition coefficient of drug in the Vitamin E loaded lens (K) is defined as: […]
compound,measurement,setting,value
"C[C@@H]1C[C@H]2[C@@H]3CCC4=CC(=O)C=C[C@]4(C)[C@@]3(F)[C@@H](O)C[C@]2(C)[C@@]1(O)C(=O)CO [DX, dexamethasone]",concentration of nearly saturated DX-PBS solution,"[1]; PBS, room temperature",~80 µg/mL
same,saturated DX in ethanol,[1]; ethanol,about 1 mg/ml
CC(C)(C)NC[C@H](O)COc1nsnc1N1CCOCC1 [timolol],D0 of timolol relative to D0 of DX,[2],about 3 factor
Vitamin E,"Vitamin E in the release medium, PBS",[3],not detected
